From PubChem BioAssay (NCI)
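Results reflect a 48-hour exposure of cells in 96-well plates to compound at five concentrations. At the GI50, growth is halved. At the TGI there is no net growth.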 Where a SMILES comes first, the peptide text is derived from it. [ ]: non-standard residue; d: D form. The star is where a group is joined. ξ: configuration not given here. NMeY = CN[C@@H](Cc1ccc(O)cc1)C(=O)O; Cbz = O=C(OCc1ccccc1)*; ξA = CC(N)C(=O)O

What was measured:
Experiment in all cases: growth of human tumour cells (NCI), 48 h
RPMI-8226 leukemia = system: RPMI-8226 leukemia
MALME-3M melanoma = system: MALME-3M melanoma
U251 CNS = system: U251 CNS
SF-268 CNS = system: SF-268 CNS
A498 renal = system: A498 renal
HCT-15 colon = system: HCT-15 colon
MDA-MB-231 breast = system: MDA-MB-231 breast
ACHN renal = system: ACHN renal
MCF7 breast = system: MCF7 breast
UACC-62 melanoma = system: UACC-62 melanoma

SMILES | TGI (RPMI-8226 leukemia) | TGI (MALME-3M melanoma) | TGI (U251 CNS) | TGI (SF-268 CNS) | TGI (A498 renal) | TGI (HCT-15 colon) | TGI (MDA-MB-231 breast) | TGI (ACHN renal) | TGI (MCF7 breast) | TGI (UACC-62 melanoma) | GI50 (A498 renal) | GI50 (MDA-MB-231 breast)
COc1ccccc1C(=O)c1c(N2CCCCC2)c(=O)c1=O | > 100 µM | > 100 µM | > 100 µM | > 100 µM | > 100 µM | > 100 µM | > 100 µM | > 100 µM | > 100 µM | > 100 µM | – | –
Cc1ncc([N+](=O)[O-])n1CCN=[N+]=[N-] | > 100 µM | > 100 µM | > 100 µM | > 100 µM | > 100 µM | > 100 µM | > 100 µM | > 100 µM | > 100 µM | > 100 µM | – | –
Cc1ccc(Nc2nc(=O)[nH]c(=O)[nH]2)cc1N | > 100 µM | > 100 µM | > 100 µM | > 100 µM | > 100 µM | > 100 µM | > 100 µM | > 100 µM | > 100 µM | > 100 µM | – | –
O=C(c1ccccc1F)c1c(NCc2ccccc2)c(=O)c1=O | > 100 µM | > 100 µM | > 100 µM | > 100 µM | > 100 µM | > 100 µM | > 100 µM | > 100 µM | > 100 µM | > 100 µM | – | –
c1ccc2c3c(ccc2c1)CSCc1ccc2ccccc2c1-3 | > 100 µM | > 100 µM | > 100 µM | > 100 µM | > 100 µM | > 100 µM | > 100 µM | > 100 µM | > 100 µM | > 100 µM | – | –
CCCCCCCCCCCCOC1C(COCCN2CCCC2)OC2OC(C)(C)OC21 (configuration not stated) | 12.1 µM | 3.35 µM | 3.12 µM | 4.44 µM | 27.9 µM | 3.17 µM | 2.92 µM | 11.2 µM | 3.1 µM | 3.36 µM | – | –
COc1ccc(C[C@@H](C(=O)NCC(N)=O)N(C)C(=O)[C@@H]2CCCN2C(=O)[C@H](CC(C)C)NC(=O)C(C)NC(=O)OCc2ccccc2)cc1 (some centres not stated) (Cbz-[ξA]LP[NMeY](Me)G-NH2) | > 100 µM | > 100 µM | > 100 µM | > 100 µM | > 100 µM | > 100 µM | > 100 µM | > 100 µM | > 100 µM | > 100 µM | – | –
CCOC(=O)c1cc(-c2ccc(OC)c(OC)c2)c[nH]1 | > 10 µM | > 10 µM | > 10 µM | > 10 µM | > 10 µM | > 10 µM | > 10 µM | > 10 µM | > 10 µM | > 10 µM | – | –
CCOC(=O)C1C/C(C)=C(/C)SCCCS1 (configuration not stated) | > 100 µM | > 100 µM | > 100 µM | > 100 µM | > 100 µM | > 100 µM | > 100 µM | > 100 µM | > 100 µM | > 100 µM | – | –
O=C1c2cc(Cl)ccc2-n2c(noc2=O)C2CSCN12 (configuration not stated) | > 100 µM | > 100 µM | > 100 µM | > 100 µM | > 100 µM | > 100 µM | > 100 µM | > 100 µM | > 100 µM | > 100 µM | – | –
Cn1c(N)c(/C=N/NC(=O)CC#N)c(=O)n(C)c1=O | > 100 µM | > 100 µM | > 100 µM | > 100 µM | > 100 µM | > 100 µM | > 100 µM | > 100 µM | > 100 µM | > 100 µM | – | –
CC(C)=CC(=O)O[C@@H]1CC(C)(C)CC2C3=CCC4[C@]56CC[C@](O)(OC5)C(C)(C)C6CC[C@@]4(C)C3(C)CC[C@]21C(=O)O (some centres not stated) | > 100 µM | > 100 µM | > 100 µM | > 100 µM | > 100 µM | > 100 µM | > 100 µM | 82.8 µM | > 100 µM | > 100 µM | – | –
C/C(=N\N=C(N)N)c1c(C(=O)OCCCCCCOC(=O)c2nc3sccn3c2/C(C)=N/N=C(N)N)nc2sccn12 | > 100 µM | > 100 µM | > 100 µM | > 100 µM | > 100 µM | > 100 µM | > 100 µM | > 100 µM | > 100 µM | > 100 µM | – | –
CCOC(=O)CCC(NC(=O)OCc1ccccc1)C(=O)NNC(=O)OC(C)(C)C (configuration not stated) | > 100 µM | > 100 µM | > 100 µM | > 100 µM | > 100 µM | > 100 µM | > 100 µM | > 100 µM | > 100 µM | > 100 µM | – | –
CC(=O)N(C(C)=O)n1c(Cc2ccc(Cl)cc2)nn(C(C)=O)c1=O | > 100 µM | > 100 µM | > 100 µM | > 100 µM | > 100 µM | > 100 µM | > 100 µM | > 100 µM | > 100 µM | > 100 µM | – | –
CCCCn1cc(C(=O)O)c(=O)c2c3sccc3ccc21 | > 100 µM | > 100 µM | > 100 µM | > 100 µM | > 100 µM | > 100 µM | > 100 µM | > 100 µM | > 100 µM | > 100 µM | – | –
COc1cn2c(cc1=O)COc1ccc(-c3ccccc3)cc1-2 | > 100 µM | > 84.1 µM | > 100 µM | > 100 µM | > 100 µM | > 100 µM | > 100 µM | > 100 µM | > 100 µM | > 100 µM | 33 µM | > 100 µM
